{"source": "patent US12441693B2", "about": "“Targeting STAT sumoylation to enhance immune responses” (THE GEORGE WASHINGTON UNIVERSITY, priority 2018, dated 2025)", "key": {"[1]": {"tested_on": "STAT5, STAT1, STAT3", "assay": "Western blot of phosphorylated STATs in NK cells", "type": "cell-based, human", "protocol": "Next, NK cells were cultured with IL-15 in the presence or absence of HODHBt and levels of phosphorylated STATs were measured by Western blot.\n(§1) In general, samples are prepared and loaded on to a gel and during the electrophoresis the negatively charged proteins move toward the positively charged anode. In order to further analyze the proteins, they are transferred onto a membrane in a procedure called blotting. After the transfer, the membrane is blocked in order to prevent unwanted membrane-protein interaction in the following steps. To visualize the protein of interest the membrane is commonly first probed using a primary protein-specific antibody followed by a labeled secondary antibody used for detection. An image is taken of the membrane and the result is analyzed."}, "[2]": {"tested_on": "STAT5, STAT1, STAT3", "assay": "Western blot of phosphorylated STATs in CD8 T cells", "type": "cell-based, human", "protocol": "To address whether SUMOylation controls STAT activation in human CD8 T cells, polyclonally activated CD8 T cells were cultured with IL-2 in the presence or absence of HODHBt and levels of phosphorylated STATs were measured by Western blot. […] Proliferation of CD8 T cells is dependent on the activation and phosphorylation of STAT5.\nas §1"}, "[3]": {"tested_on": "Interferon Stimulated Genes (ISGs)", "assay": "RNASeq of primary CD4 T cells", "type": "cell-based, human", "conditions": "IL-2 and HODHBt vs IL-2 and DMSO", "protocol": "RNASeq was performed in primary CD4 T cells treated with HODHBt following the method of Bosque et al., CELL REP. 2017; 18(5):1324-1334, the disclosure of which is hereby incorporated by reference in its entirety.\nTotal RNA was extracted from cells using Trizol (Invitrogen 15596), polyadenylated RNA was enriched using NEXTflex Poly(A) Beads (Bioo Scientific 512980), and stranded libraries were prepared using a NEXTflex Rapid Directional qRNA-Seq Kit (Bioo Scientific 5130-02D). Sequencing was performed by the Iowa Institute of Human Genetics Genomics Division on an Illumina HiSeq 2500 using 125 base pair (bp) paired-end reads. Raw paired sequences were first trimmed to remove Illumina sequencing adapters and Bioo Scientific randomized 8-mer molecular indexes using Trim Galore! […] For RNA-Seq tracks, reads were then compiled using the genomecov (-split) function of bedtools 2.25.0, normalized by dividing the number of hg19-mapped reads within each sample by the average number of hg19-mapped reads across all nine samples, combined across donors, and visualized on the UCSC Genome Browser. For differential expression analysis, reads were counted over UCSC hg19 genes (26,364 entries) using the featureCounts (-p -B -C -M) function of Subread 1.5.0 (Liao et al., 2014). […]"}, "[4]": {"tested_on": "STAT1, STAT5, Mx1", "assay": "Western blot of primary CD4 T cells (pSTAT1, pSTAT5, Mx1)", "type": "cell-based, human", "conditions": "increased concentrations", "protocol": "as §1"}, "[5]": {"tested_on": "STAT1, STAT2, STAT3, STAT4, STAT5A, STAT5B, STAT6", "assay": "Western blot of STAT phosphorylation in 293FT HEK cells transfected with V5-tagged STATs", "type": "cell-based", "conditions": "24 hours, vs DMSO", "protocol": "as §1"}, "[6]": {"tested_on": "NK cells", "assay": "In vitro expansion of NK cells with IL-2", "type": "cell-based, human", "conditions": "500 IU/ml of IL-2, two HIV-negative donors", "excerpt": "(§2) As for CD8 T cells, STATS play an important role in the expansion of NK cells. As such, it was hypothesized that inhibiting STAT SUMOylation may enhance the expansion of NK cells. This has important implications for adoptive cell immunotherapies as NK cells are increasingly becoming an attractive alternative to T cell therapies. In order to address whether inhibiting STAT SUMOylation may enhance NK proliferation in vitro, NK cells were isolated from two human HIV-negative donors and expanded using Miltenyi Biotec NK MACS Medium in the presence of 500 IU/ml of IL-2 and in the presence or absence of HODHBt."}, "[7]": {"tested_on": "K562", "assay": "NK cell killing of K562 cells, E:T 1:1, 4 hours", "type": "cell-based, human", "protocol": "It was therefore hypothesized that inhibiting STAT SUMOylation may enhance the ability of IL-15 stimulated NK cells to clear the HIV latent reservoir. To test the hypothesis, NK cells were treated with DMSO, IL-15-stimulated, treated with HODHBt or IL-15-stimulated and treated with HODHBt. Cells were then tested in their ability to kill the erythroleukemia cell line K562, which lack MHC-I. In an experiment, the NK cells from two donors were co-cultured with K562 at an E:T ratio of 1:1 for 4 hours (FIG. 19A). NK cells were pretreated with IL-15, HODHBt, or a combination of both."}, "[8]": {"tested_on": "HIV-infected cultured TCM cells", "assay": "Killing of HIV-infected cultured TCM cells by expanded autologous NK cells", "type": "cell-based, human", "conditions": "autologous NK cells expanded with IL-2 and HODHBt", "excerpt": "as §2"}}, "data": [{"smiles": "O=c1c2ccccc2nnn1O", "note": "[HODHBt]", "values": [{"measurement": "phosphorylation of STAT1 in NK cells", "setting": "[1]; HODHBt alone", "result": "increased the phosphorylation levels of STAT1"}, {"measurement": "phosphorylation of STAT5 in NK cells", "setting": "[1]; after IL-15 treatment", "result": "increased the levels of phosphorylation of STAT5 after IL-15 treatment"}, {"measurement": "phosphorylation of STAT1 and STAT3 in NK cells", "setting": "[1]; with IL-15, vs IL-15", "result": "enhanced the levels of phosphorylation of STAT1 and STAT3 induced by IL-15"}, {"measurement": "phosphorylation of STAT1 and STAT3 in CD8 T cells", "setting": "[2]; HODHBt alone", "result": "increased the phosphorylation levels of both STAT1 and STAT3"}, {"measurement": "phosphorylation of STAT5 in CD8 T cells", "setting": "[2]; after IL-2 treatment", "result": "increased the levels of phosphorylation of STAT5 after IL-2 treatment"}, {"measurement": "phosphorylation of STAT1 and STAT3 in CD8 T cells", "setting": "[2]; with IL-2, vs IL-2", "result": "enhanced those induced by IL-2"}, {"measurement": "expression of Interferon Stimulated Genes (RNASeq)", "setting": "[3]", "result": "induction of several Interferon Stimulated Genes"}, {"measurement": "levels of myxovirus resistance 1 (Mx1)", "setting": "[4]", "result": "increased the levels"}, {"measurement": "levels of phosphorylated STAT1 and STAT5", "setting": "[4]", "result": "increased the levels of phosphorylated STAT1 and STAT5"}, {"measurement": "phosphorylation levels of STATs", "setting": "[5]", "result": "increased phosphorylation levels of all the other STATs"}, {"measurement": "NK cell expansion", "setting": "[6]", "result": "enhanced NK cell expansion in vitro"}, {"measurement": "killing of K562 by NK cells expanded with compound", "setting": "[7]; NK cells expanded with IL-2 and HODHBt", "result": "retained the ability to kill the target cell line K562"}, {"measurement": "killing of K562 by pretreated NK cells", "setting": "[7]; NK cells pretreated with combination of IL-15 and HODHBt, E:T 1:1, 4 hours", "result": "drastic increase in the cytolytic capacity of NK cells"}, {"measurement": "killing of HIV-infected cultured TCM cells by NK cells expanded with compound", "setting": "[8]", "result": "as well as HIV-infected cultured TCM cells from the same donor"}]}]}
